Measurements from patent publication US20130343993A1, “RADIOLABELED 5-HT6 LIGANDS” (AbbVie Inc., priority 2012, published 2013).
Where two headings read alike, the source gives them in different places.

Legend:
[1] = target: 78 targets (CEREP) other than the 5-HT6 receptor; assay: CEREP panel of 78 targets; format: binding; conditions: all but the 5-HT2B and 5-HT2A receptors, read-out: Ki at ancillary targets
Rat microsome stability = format: in vitro ADME; conditions: rat microsomes, read-out: Rat microsome T1/2
h-5-HT2B receptor = target: T1, h-5-HT2B receptor (Homo sapiens, UniProt P41595); assay: 5-HT2B receptor binding assay ([125I]-DOI displacement, CHO-K1 membranes)
T1 construct: purchased Perkin Elmer ES-314-M400UA; host or cells: CHO-K1
Method: (§1) Cells from stable clonal cell lines expressing the corresponding receptor (5-HT6, 5-HT2A or 5-HT2B receptors) were washed with PBS with 0.02% EDTA. The cells were collected by centrifugation at 500 g for 10 min. at 4° C., washed with PBS and centrifuged (500 g, 10 min. 4° C.). The pellets were stored at −80° C. until use. For membrane preparation, the thawed cell pellet was resuspended in ice-cold sucrose buffer (0.25 M sucrose, 10 mM Hepes (pH 7.4), 1 mM Phenylmethylsulfonyl fluoride (PMSF) in DMSO, […] Pepstatin-A, 3 mM EDTA, 0.025% Bacitracin) and homogenized with a Branson Sonifier W-250 (Settings: Timer 4; Output Control 3; Duty Cycle constant; 2 to 3 cycles). Cell disruption was checked with the aid of a microscope. Remaining unbroken cells were pelleted at 1,000 g for 10 min. at 4° C. The sucrose buffer supernatant was then centrifuged at 60,000 g for 1 h at 4° C. (Beckman Ultrazentrifuge XL 80). […] Protein concentration was determined (BCA-Kit; Pierce) and aliquots stored at −80° C. or in liquid nitrogen for long-term storage.
(§2) All receptor binding experiments were carried out in the corresponding assay buffer in a total volume of 200 μl in the presence of various concentrations of test compound (10^−5 M to 10^−9 M, tenfold serial dilution, duplicate determinations). […] Radioactivity was measured in a Microbeta Trilux two hours after the addition of the scintillation mixture. […]

h-5-HT6 receptor = target: T2, h-5-HT6 receptor (Homo sapiens, UniProt P50406); assay: 5-HT6 receptor binding assay ([3H]-LSD displacement, HEK293 membranes)
T2 construct: expressed in transfected cells
Method: as §1, with “The” for “Cells from stable clonal cell lines expressing the corresponding receptor (5-HT6, 5-HT2A or 5-HT2B receptors) were washed with PBS with 0.02% EDTA. The”, “C.” for “C. The sucrose buffer supernatant was then centrifuged at 60,000 g for 1 h at 4° C. (Beckman Ultrazentrifuge XL 80).”
as §2
Data derived from liquid scintillation counting were analyzed by iterative non-linear regression analysis with the use of the Statistical Analysis System (SAS): a program similar to “LIGAND” as described by Munson and Rodbard (Anal. Biochem. 1980, 107, 220-239). […]

[2] = Rat PK (0.05 mg/kg, iv), plasma and brain levels; format: in vivo; conditions: for Free B/P Ratio: free brain concentration divided by free plasma concentration
h-5-HT2A receptor = target: T3, h-5-HT2A receptor (Homo sapiens, UniProt P28223); assay: 5-HT2A receptor binding assay ([125I]-DOI displacement, CHO-K1 membranes); conditions: for Selectivity for 5-HT6 v. 5-HT2A: ratio of human 5-HT2A Ki to human 5-HT6 Ki
T3 construct: purchased Perkin Elmer ES-313-M400UA; host or cells: CHO-K1
Method: Cells from stable clonal cell lines expressing the corresponding receptor (5-HT6, 5-HT2A or 5-HT2B receptors) were washed with PBS with 0.02% EDTA. The cells were collected by centrifugation at 500 g for 10 min. at 4° C., washed with PBS and centrifuged (500 g, 10 min. 4° C.). The pellets were stored at −80° C. until use. For membrane preparation, the thawed cell pellet was resuspended in ice-cold sucrose buffer (0.25 M sucrose, 10 mM Hepes (pH 7.4), 1 mM Phenylmethylsulfonyl fluoride (PMSF) in DMSO, […] Pepstatin-A, 3 mM EDTA, 0.025% Bacitracin) and homogenized with a Branson Sonifier W-250 (Settings: Timer 4; Output Control 3; Duty Cycle constant; 2 to 3 cycles). Cell disruption was checked with the aid of a microscope. Remaining unbroken cells were pelleted at 1,000 g for 10 min. at 4° C. The sucrose buffer supernatant was then centrifuged at 60,000 g for 1 h at 4° C. (Beckman Ultrazentrifuge XL 80). The pellet was resuspended in 30 ml ice-cold Tris buffer (20 mM TRIS (pH 7.4), […] Pepstatin A, 0.1 mM PMSF, 3 mM EDTA) by pipetting through a 10 ml serological pipet and centrifuged for 1 h at 4° C. at 60,000 g. A final resuspension was performed in a small volume of ice-cold Tris buffer (see above) by pressing through a serological pipet followed by ultrasonic treatment with a Branson Sonifier W-250 (Settings: Timer 1; Output Control 3; Duty Cycle constant; 1 cycle). Protein concentration was determined (BCA-Kit; Pierce) and aliquots stored at −80° C. or in liquid nitrogen for long-term storage.
All receptor binding experiments were carried out in the corresponding assay buffer in a total volume of 200 μl in the presence of various concentrations of test compound (10^−5 M to 10^−9 M, tenfold serial dilution, duplicate determinations). The assays were terminated by filtration on polyethylenimine (PEI 0.1% or 0.3%) presoaked Packard Unifilter Plates (GF/C or GF/B) with a Tomtec MachIII U 96well-plate harvester. After the plates had been dried for 2 h at 55° C. in a drying chamber scintillation cocktail (BetaPlate Scint; PerkinElmer) was added. Radioactivity was measured in a Microbeta Trilux two hours after the addition of the scintillation mixture. Data derived from liquid scintillation counting were analyzed by iterative non-linear regression analysis with the use of the Statistical Analysis System (SAS): a program similar to “LIGAND” as described by Munson and Rodbard (Analytical Biochemistry 107, 220-239 (1980).
CHO-K1 cell membranes expressing h-5-HT2A receptor (Perkin Elmer ES-313-M400UA) were thawed, diluted in assay buffer (50 mM Tris-HCl, 5 mM MgCl2, 1 mM EGTA, pH 7.4) to a final membrane protein concentration of 25 μg/ml and homogenized by gentle vortexing. For the competition binding studies; 20 μl of varying concentrations of test compounds in assay buffer (or 20 μl of assay buffer), 80 μl of 0.1 nM [^125I]—R—O-DOI (2,5-dimethoxy-4-iodo-amphetamine) (Perkin Elmer NEX-255) were incubated with 100 μl of homogenized membranes (total volume 200 μl). Non-specific binding was determined in the presence of 10 μM (±)-DOI (Sigma D-101). After a 1 hr incubation at room temperature, the binding reaction was harvested (Tomtec Mach III U Harvester) through 96-well GF/C filter plates (Perkin Elmer) presoaked for 1 hr with 20 μl per well of 0.3% polyethylene-imine (PEI). Harvested plates were washed twice with ice-cold assay buffer and dried prior to addition of 35 μl scintillator (BetaplateScint, Perkin Elmer). The radioactivity was determined by liquid scintillation spectrometry in a MicroBeta (Perkin Elmer) plate counter.
Data derived from liquid scintillation counting were analyzed by iterative non-linear regression analysis with the use of the Statistical Analysis System (SAS): a program similar to “LIGAND” as described by Munson and Rodbard (Anal. Biochem. 1980, 107, 220-239). Fitting was performed according to formulae described by Feldman (Anal. Biochem. 1972, 48, 317-338). […]

Rat 5-HT6 = Rat 5-HT6 (Rattus norvegicus, UniProt P31388); assay: Rat 5-HT6 binding
5-HT2a = 5-HT2a (Homo sapiens, UniProt P28223); conditions: background statement on the known PET ligand; cited from earlier work
Sequence of 5-HT2a (P28223 whole entry): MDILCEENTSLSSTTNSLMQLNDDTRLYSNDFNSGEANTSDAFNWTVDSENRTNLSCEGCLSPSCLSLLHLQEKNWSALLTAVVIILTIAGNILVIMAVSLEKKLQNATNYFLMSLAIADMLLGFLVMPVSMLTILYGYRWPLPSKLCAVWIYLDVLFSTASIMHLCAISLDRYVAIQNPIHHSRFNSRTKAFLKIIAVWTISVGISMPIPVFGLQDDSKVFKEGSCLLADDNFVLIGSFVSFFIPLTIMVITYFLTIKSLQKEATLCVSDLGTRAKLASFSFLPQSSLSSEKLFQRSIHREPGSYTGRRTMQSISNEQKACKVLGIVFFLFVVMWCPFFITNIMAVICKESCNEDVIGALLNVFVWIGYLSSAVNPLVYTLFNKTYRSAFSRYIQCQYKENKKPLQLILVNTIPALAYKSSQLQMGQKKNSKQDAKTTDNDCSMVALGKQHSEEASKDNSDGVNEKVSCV

T3 sequence (P28223 whole entry): as above
T2 sequence (P50406 whole entry): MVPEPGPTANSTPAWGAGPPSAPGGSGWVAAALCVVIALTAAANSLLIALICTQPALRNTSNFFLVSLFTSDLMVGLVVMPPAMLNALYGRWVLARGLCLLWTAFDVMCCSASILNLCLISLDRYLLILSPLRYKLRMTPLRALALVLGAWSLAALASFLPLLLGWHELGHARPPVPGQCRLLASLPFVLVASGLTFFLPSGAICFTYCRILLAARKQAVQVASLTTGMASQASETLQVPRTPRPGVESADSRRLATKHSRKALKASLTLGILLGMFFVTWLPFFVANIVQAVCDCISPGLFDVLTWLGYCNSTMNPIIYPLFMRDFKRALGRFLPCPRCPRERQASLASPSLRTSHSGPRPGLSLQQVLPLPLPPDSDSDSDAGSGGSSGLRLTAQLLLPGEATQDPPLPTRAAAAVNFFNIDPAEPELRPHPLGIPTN
T1 sequence (P41595 whole entry): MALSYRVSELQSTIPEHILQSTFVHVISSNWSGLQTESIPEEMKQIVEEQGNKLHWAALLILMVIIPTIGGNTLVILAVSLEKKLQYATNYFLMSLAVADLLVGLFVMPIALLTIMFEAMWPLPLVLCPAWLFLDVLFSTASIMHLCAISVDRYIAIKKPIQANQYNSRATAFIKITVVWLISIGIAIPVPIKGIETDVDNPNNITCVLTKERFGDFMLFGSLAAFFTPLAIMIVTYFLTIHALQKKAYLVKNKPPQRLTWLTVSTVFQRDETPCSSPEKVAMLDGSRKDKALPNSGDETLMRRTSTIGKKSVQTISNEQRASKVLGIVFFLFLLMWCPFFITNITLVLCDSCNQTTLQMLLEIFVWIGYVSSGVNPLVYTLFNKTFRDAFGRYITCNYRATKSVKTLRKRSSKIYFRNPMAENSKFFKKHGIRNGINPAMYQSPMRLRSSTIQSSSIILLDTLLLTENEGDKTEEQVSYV
Sequence of Rat 5-HT6 (P31388 whole entry): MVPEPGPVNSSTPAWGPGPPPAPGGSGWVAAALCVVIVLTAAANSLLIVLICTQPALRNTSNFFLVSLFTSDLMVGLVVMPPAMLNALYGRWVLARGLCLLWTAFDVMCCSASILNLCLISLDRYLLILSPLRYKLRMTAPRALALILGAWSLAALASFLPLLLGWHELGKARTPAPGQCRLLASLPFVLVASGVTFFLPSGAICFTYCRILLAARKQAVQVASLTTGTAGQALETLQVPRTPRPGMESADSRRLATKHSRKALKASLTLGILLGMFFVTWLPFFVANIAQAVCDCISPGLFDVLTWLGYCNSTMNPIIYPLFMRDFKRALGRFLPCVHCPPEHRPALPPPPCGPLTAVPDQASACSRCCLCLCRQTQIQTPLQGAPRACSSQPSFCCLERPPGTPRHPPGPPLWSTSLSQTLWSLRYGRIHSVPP

In the case of CN1CCC(c2cccc3cc(S(=O)(=O)c4ccccn4)cnc23)CC1 [Example 1, 8-(1-methylpiperidin-4-yl)-3-(pyridin-2-ylsulfonyl)quinoline], the Ki [1] is reported as > 1000 nM, the half-life (Rat microsome stability) is reported as 1.73 h and the Ki (h-5-HT2B receptor) is reported as 144 nM. For the same molecule, the “selectivity for 5-HT6 over 5-HT2B” value (h-5-HT2B receptor) was 654.5 fold, the Ki (h-5-HT6 receptor) was 0.22 nM and the “Free [brain]” value ([2]; 3 min after dose) was 21.5 ng/g. The “Plasma Conc.” value ([2]; 3 min after dose) was 104.5 ng/mL, the “Free B/P Ratio” value ([2]; 3 min after dose) was 0.21 and the “Free [brain]” value ([2]; 5 min after dose) was 23.1 ng/g. The “Plasma Conc.” value ([2]; 5 min after dose) was 83.5 ng/mL, the “Free B/P Ratio” value ([2]; 5 min after dose) was 0.28 and the Ki (h-5-HT2A receptor) was 123 nM. The “selectivity for 5-HT6 over 5-HT2A” value (h-5-HT2A receptor) was 559 fold and the “Selectivity for 5-HT6 v. 5-HT2A” value (h-5-HT2A receptor) was 559 x.

In the case of [3H]C([3H])([3H])N1CCC(c2cccc3cc(S(=O)(=O)c4ccccn4)cnc23)CC1 [Example 2, 8-(1-([^3H]methyl)piperidin-4-yl)-3-(pyridin-2-ylsulfonyl)quinoline], the “F. Cortex/Cer.” value (5 min after dose) is reported as 0.9, the Hippo./Cer. (5 min after dose) is reported as 1.06 and the Striatum/Cer. (5 min after dose) is reported as 0.81. The “F. Cortex/Cer.” value (40 min after dose) was 1.20, the Hippo./Cer. (40 min after dose) was 1.07 and the Striatum/Cer. (40 min after dose) was 1.31.

Molecule CN1CCN(c2cccc3cc(S(=O)(=O)c4cccc(F)c4)cnc23)CC1 [GSK-215083, reference compound] has a Ki (Rat 5-HT6) of 0.16 nM, a half-life (Rat microsome stability) of 1.04 h and a Ki (h-5-HT6 receptor) of 0.34 nM. The Ki (h-5-HT2A receptor) was 0.395 nM, the “selectivity for 5-HT6 over 5-HT2A” value (h-5-HT2A receptor) was 1.16 fold and the “Selectivity for 5-HT6 v. 5-HT2A” value (h-5-HT2A receptor) was 1.16 x.

For CN1CCN(c2cccc3cc(S(=O)(=O)c4cccc(F)c4)cnc23)CC1 [[^11C]GSK-215083], the Ki (5-HT2a) is given as 0.395 nM.
